Key:
[1] = Human pharmacokinetics of Formulation 3 with and without 20 mg famotidine; assay type: in vivo; details: conventional formulation of Compound II
Description: The oral absorption obtained from Formulation 3 with and without pH-modifying medications (20 mg famotidine) was evaluated as part of human clinical study. For the treatment with famotidine, single oral doses of 20 mg famotidine (1×20 mg tablet) were administered on the previous evening and 2 hours prior to a single oral dose of Formulation 3.

[2] = Human pharmacokinetics of Formulation 4 with and without famotidine, co-dosed with Formulation 1; assay type: in vivo; details: Compound II from Formulation 4 co-dosed with Formulation 1; healthy subjects
Description: For the treatment with famotidine, single oral doses of 20 mg famotidine (1×20 mg tablet) was administered 10 hours and 2 hours prior to an oral dose of Formulation 1 and Formulation 4.

[3] = Aqueous / pH-dependent solubility; assay type: physicochemical; details: between pH 1-3

absorption upon co-administration with a pH-raising medication [1]: poor absorption
exposure following famotidine versus without famotidine [2]: comparable
pH-dependent solubility profile [3]: sharp pH-dependent solubility profile
Structure (SMILES): COC(=O)N[C@H](C(=O)N1CCC[C@H]1c1nc(-c2ccc3c(c2)O[C@@H](c2ccccc2)n2c-3cc3cc(-c4c[nH]c([C@@H]5CCCN5C(=O)[C@@H](NC(=O)OC)C(C)C)n4)ccc32)c[nH]1)C(C)C [Compound II, dimethyl N,N′-([(6S)-6-phenylindolo[1,2-c][1,3]benzoxazine-3,10-diyl]bis{1H-imidazole-5,2-diyl-(2S)-pyrrolidine-2,1-diyl[(2S)-3-methyl-1-oxobutane-1,2-diyl]})dicarbamate]

Reference: patent US20160346289A1, “Fixed-Dose Combinations of Antiviral Compounds” (MERCK SHARP & DOHME CORP., priority 2014, published 2016)
